The results in this text go back to US20140213576A1, “NOVEL COMPOUND USEFUL FOR THE TREATMENT OF DEGENERATIVE AND INFLAMMATORY DISEASES” (GALAPAGOS NV, priority 2013, published 2014).

In experiment [1] the target is T1, JAK3 (Homo sapiens, UniProt P52333).
T1 construct: purchased Carna Biosciences 09CBS-0625B
T1 sequence (P52333 1-1124): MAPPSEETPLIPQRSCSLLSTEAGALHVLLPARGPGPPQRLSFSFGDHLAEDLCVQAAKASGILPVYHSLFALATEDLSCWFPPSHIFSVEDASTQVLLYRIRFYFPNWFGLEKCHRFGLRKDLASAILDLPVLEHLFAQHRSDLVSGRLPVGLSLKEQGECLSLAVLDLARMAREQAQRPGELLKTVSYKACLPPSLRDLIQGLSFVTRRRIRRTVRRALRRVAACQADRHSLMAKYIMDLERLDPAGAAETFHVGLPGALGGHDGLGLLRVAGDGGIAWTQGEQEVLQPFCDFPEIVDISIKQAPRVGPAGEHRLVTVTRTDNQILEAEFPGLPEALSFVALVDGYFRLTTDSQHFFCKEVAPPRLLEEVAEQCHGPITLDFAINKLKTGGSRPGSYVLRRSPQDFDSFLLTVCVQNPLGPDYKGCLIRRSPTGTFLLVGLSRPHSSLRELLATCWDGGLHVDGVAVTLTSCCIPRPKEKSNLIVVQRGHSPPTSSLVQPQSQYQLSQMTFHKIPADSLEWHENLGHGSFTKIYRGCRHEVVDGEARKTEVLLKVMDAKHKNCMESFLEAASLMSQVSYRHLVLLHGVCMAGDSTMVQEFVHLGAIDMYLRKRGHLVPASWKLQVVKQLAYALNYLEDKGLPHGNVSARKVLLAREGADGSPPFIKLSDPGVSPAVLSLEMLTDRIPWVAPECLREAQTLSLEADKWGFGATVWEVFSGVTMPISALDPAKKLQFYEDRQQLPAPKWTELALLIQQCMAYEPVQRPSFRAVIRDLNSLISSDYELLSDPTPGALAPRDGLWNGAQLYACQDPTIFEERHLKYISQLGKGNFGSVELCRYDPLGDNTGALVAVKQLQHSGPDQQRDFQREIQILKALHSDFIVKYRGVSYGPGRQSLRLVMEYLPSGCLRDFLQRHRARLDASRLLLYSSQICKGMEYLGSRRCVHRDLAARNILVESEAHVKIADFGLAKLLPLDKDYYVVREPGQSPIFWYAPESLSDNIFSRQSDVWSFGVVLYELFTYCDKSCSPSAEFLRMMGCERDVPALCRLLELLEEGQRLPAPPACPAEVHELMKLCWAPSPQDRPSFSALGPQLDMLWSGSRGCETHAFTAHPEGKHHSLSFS
Nature of the experiment: JAK3 Ki determination assay. Type of experiment: biochemical. Conditions: Lineweaver-Burk, varying ATP, polyGT substrate; read-out: Ki against JAK3. On the procedure: For the determination of Ki, different amounts of compound were mixed with the enzyme and the enzymatic reaction was followed as a function of ATP concentration. The Ki was determined by means of double reciprocal plotting of Km vs compound concentration (Lineweaver-Burk plot). JAK3 (Carna Biosciences, 09CBS-0625B) was used at a final concentration of 10 ng/mL. The substrate was Poly(Glu,Tyr)sodium salt (4:1), MW 20 000-50 000 (Sigma, P0275) The reaction was performed in 25 mM Tris pH 7.5, 0.01% Triton X-100, 0.5 mM EGTA, 2.5 mM DTT, 0.5 mM Na3VO4, 5 mM b-glycerolphosphate, 10 mM MgCl2 with varying concentrations of ATP and compound and stopped by addition of 150 mM phosphoric acid. Measurement of incorporated phosphate into the substrate polyGT was done by loading the samples on a filter plate (using a harvester, Perkin Elmer) and subsequent washing. Incorporated ^33P in polyGT was measured in a Topcount scintillation counter after addition of scintillation liquid to the filter plates (Perkin Elmer).

Experiment [2] deals with T2, Recombinant human TYK2 catalytic domain (Homo sapiens, UniProt P29597).
T2 construct: Recombinant human TYK2 catalytic domain (amino acids 871-1187; catalog number 08-147); purchased Carna biosciences 08-147
T2 sequence (P29597 871-1187): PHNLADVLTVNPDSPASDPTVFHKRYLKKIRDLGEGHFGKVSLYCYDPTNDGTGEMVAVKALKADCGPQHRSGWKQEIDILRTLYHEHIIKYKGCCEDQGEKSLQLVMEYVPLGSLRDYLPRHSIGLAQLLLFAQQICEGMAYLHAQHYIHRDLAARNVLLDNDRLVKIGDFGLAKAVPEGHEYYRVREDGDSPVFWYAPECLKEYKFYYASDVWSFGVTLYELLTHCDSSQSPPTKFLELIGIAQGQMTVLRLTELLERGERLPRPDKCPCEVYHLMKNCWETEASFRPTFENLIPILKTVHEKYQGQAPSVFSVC
Nature of the experiment: TYK2 inhibition assay (polyGT substrate). Conditions: 0.1 μM ATP, individual determinations, read-out: IC50 against TYK2. Type of experiment: biochemical. On the procedure:
Recombinant human TYK2 catalytic domain (amino acids 871-1187; catalog number 08-147) was purchased from Carna biosciences. 5 ng of TYK2 was incubated with 12.5 μg polyGT substrate (Sigma catalog number P0275) in kinase reaction buffer (25 mM Hepes pH 7.2, 50 mM NaCl, 0.5 mM EDTA, 1 mM DTT, 5 mM MnCl2, 10 mM MgCl2, 0.1% Brij-35, 0.1 μM non-radioactive ATP, 0.125 μCi ^33P-gamma-ATP (GE Healthcare, catalog number AH9968) final concentrations) with or without 5 μL containing test compound or vehicle (DMSO, 1% final concentration), in a total volume of 25 μL, in a polypropylene 96-well plate (Greiner, V-bottom). After 90 min at 30° C., reactions were stopped by adding 25 μL/well of 150 mM phosphoric acid. […] 40 μL/well of Microscint-20 was added, the top of the plates was sealed and readout was performed using the Topcount (Perkin Elmer). Kinase activity was calculated by subtracting counts per min (cpm) obtained in the presence of a positive control inhibitor (10 μM staurosporine) from cpm obtained in the presence of vehicle. The ability of a test compound to inhibit this activity was determined as:
Percentage inhibition=((cpm determined for sample with test compound present−cpm determined for sample with positive control inhibitor) divided by (cpm determined in the presence of vehicle−cpm determined for sample with positive control inhibitor))*100. […]

Several values for one entry are separate records, joined by “and”; a condition that tells them apart may be missing. Equal values may be shown once.

For the compound `CCc1cc(C2CN(S(C)(=O)=O)C2)ncc1N(C)c1cc2c(cn1)ncn2C` [Compound 1, [4-Ethyl-6-(1-methanesulfonyl-azetidin-3-yl)-pyridin-3-yl]-methyl-(1-methyl-1H-imidazo[4,5-d]pyridin-6-yl)-amine], in experiment [1], the inhibitory constant (Ki) stood at 685 nM. Also, in experiment [2], the 50% inhibitory concentration (IC50) was 844 nM and 461 nM and 470 nM and 488 nM and 759 nM and 754 nM and 1000 nM and 501 nM and 688 nM.

As usually defined, the Ki is the dissociation constant of the complex between target and ligand, obtained from inhibition or displacement. By IC50 is commonly meant the concentration that gives 50% inhibition.
